Results on 18 compounds are retold here after US20260078130A1, “NAMPT MODULATORS, PREPARATIONS, AND USES THEREOF” (SIRONAX LTD., priority 2022, published 2026).

Assay [1] concerns endogenous NAMPT in U2OS cells. Nature of the assay: Cellular NAD+ modulation assay (NAD/NADH-Glo, U2OS cells). Type of assay: cell-based. The following applies: Homo sapiens; for maximal fold induction: read-out: Cellular Emax. A digest of the protocol: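 NAD/NADH-Glo luminescence quantified NAD+ after acid treatment (60 °C, 15 min) and neutralization of DTAB lysates. Beforehand, U2OS cells seeded 16 h earlier received compound concentration series for 24 h at 37 °C. Values given as half-maximal activation concentration (EC50) and maximal fold change versus DMSO (Emax).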

The target in assay [2] is T1, human enzyme NAMPT (full length) (Homo sapiens, UniProt P43490).
T1 construct: human enzyme NAMPT (full length)
In words: NMN fluorescence biochemical assay (stimulation of NMN synthesis by NAMPT). Conditions: for EC50: concentration giving half-maximal activation, read-out: Enzymatic EC50; for Enzymatic Emax: fold change of maximal activation compared to DMSO. An outline of the steps: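 Full-length human NAMPT (100 nM) was preincubated 15 min at 37 °C with compound in 50 mM Tris-HCl pH 7.5, 10 mM MgCl2, 2 mM DTT, then reacted 1 h at 37 °C with 50 μM NAM, 100 μM PRPP, 4 mM ATP (stated solution concentrations). NMN was derivatised with acetophenone/KOH then formic acid and read at Ex/Em 382/445 nm; EC50 and Emax (fold over DMSO) reported.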

Setting [3] is: 24 hours incubation, cellular NAD+.
Setting [4] is: NMN fluorescence assay, purified human NAMPT 100 nM.
[5] abbreviates: 24 hours incubation with compound.
[6] abbreviates: NMN synthesis by purified human NAMPT (100 nM).

SMILES strings stand for the structures. Like-named read-outs stand apart in the source and are kept apart here. Some results are limits rather than exact numbers.

T1 sequence (P43490 whole entry): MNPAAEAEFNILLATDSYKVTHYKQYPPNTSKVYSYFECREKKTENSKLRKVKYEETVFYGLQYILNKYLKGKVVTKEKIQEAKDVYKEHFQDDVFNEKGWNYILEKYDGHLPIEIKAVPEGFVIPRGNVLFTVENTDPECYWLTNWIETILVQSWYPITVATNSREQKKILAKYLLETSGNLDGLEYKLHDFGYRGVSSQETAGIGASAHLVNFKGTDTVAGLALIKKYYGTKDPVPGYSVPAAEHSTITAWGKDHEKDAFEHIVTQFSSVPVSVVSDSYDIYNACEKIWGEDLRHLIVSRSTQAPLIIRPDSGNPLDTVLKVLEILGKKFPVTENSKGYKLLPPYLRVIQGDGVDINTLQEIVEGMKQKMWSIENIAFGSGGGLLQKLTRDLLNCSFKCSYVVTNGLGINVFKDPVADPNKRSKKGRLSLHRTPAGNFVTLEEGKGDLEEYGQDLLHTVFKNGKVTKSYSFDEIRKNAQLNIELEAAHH

Consider `Cn1ncc(Cl)c1CC1(C)c2cc(Br)ccc2C(=O)N1Cc1ccc2[nH]c(=O)oc2c1` (stereo not drawn) [Compound 419, 6-((6-bromo-1-((4-chloro-1-methyl-1H-pyrazol-5-yl)methyl)-1-methyl-3-oxoisoindolin-2-yl)methyl)benzo[d]oxazol-2(3H)-one], for which, in assay [1] (setting [3]), the EC50 is less than 500 nM and the maximal fold induction was more than 1.5. In addition, the EC50 in assay [2] (setting [4]) is less than 500 nM. In addition, the “Enzymatic Emax” value in assay [2] is on record as “A (A>3)”.
Consider `Cc1ncnc(C#N)c1CC1c2ccccc2C(=O)N1CC1CC2(CNC(=O)O2)C1` (stereo not drawn) [Compound 491, 6-methyl-5-((3-oxo-2-((6-oxo-5-oxa-7-azaspiro[3.4]octan-2-yl)methyl)isoindolin-1-yl)methyl)pyrimidine-4-carbonitrile], for which, in assay [1] (setting [3]), the EC50 was less than 500 nM and the maximal fold induction is more than 1.5. For the same compound, in assay [2] (setting [4]), the EC50 fell in the range of 500 to 5000 nM. The “Enzymatic Emax” value in assay [2] is recorded as “B (3≥B>2)”.
In the case of `Cn1ncc(Cl)c1CC1c2cc(CN3CCOCC3)ccc2C(=O)N1CC1CC2(CNC(=O)O2)C1` (stereo not drawn) [Compound 461, 2-((3-((4-chloro-1-methyl-1H-pyrazol-5-yl)methyl)-5-(morpholinomethyl)-1-oxoisoindolin-2-yl)methyl)-5-oxa-7-azaspiro[3.4]octan-6-one], in assay [1] (setting [3]), the EC50 was in the range of 500 to 5000 nM and the maximal fold induction was more than 1.5. Besides, the EC50 in assay [2] (setting [4]) was in the range of 500 to 5000 nM. Also, the “Enzymatic Emax” value in assay [2] is listed as “B (3≥B>2)”.
Take `COc1ccc(CN2C(=O)c3ccccc3C2Cc2c(Cl)ccc(=O)n2C)cc1` (stereo not drawn) [Compound 589, 3-((3-chloro-1-methyl-6-oxo-1,6-dihydropyridin-2-yl)methyl)-2-(4-methoxybenzyl)isoindolin-1-one]: in assay [1] (setting [3]), the EC50 is less than 500 nM and the maximal fold induction is more than 1.5. Moreover, the EC50 in assay [2] (setting [4]) fell in the range of 500 to 5000 nM. Further, in assay [2], the “Enzymatic Emax” value was “A (A>3)”.
Regarding `O=C1c2cc(Br)ccc2CN1Cc1ccc(O)cc1` [Compound 19, 6-bromo-2-(4-hydroxybenzyl) isoindolin-1-one], in assay [1] (setting [5]), the EC50 lay in the range of 500 to 5000 nM and the maximal fold induction is 1.2 to 1.5. For the same compound, the EC50 in assay [2] (setting [6]) was not below 5000 nM. Also, the “Enzymatic Emax” value in assay [2] is listed as “A (A>3)”.
Regarding `Cn1ncc(Cl)c1CC1c2scnc2C(=O)N1Cc1ccc(O)cc1` (stereo not drawn) [Compound 430, 6-((4-chloro-1-methyl-1H-pyrazol-5-yl)methyl)-5-(4-hydroxybenzyl)-5,6-dihydro-4H-pyrrolo[3,4-d]thiazol-4-one], the EC50 in assay [1] (setting [3]) and in assay [2] (setting [4]) was less than 500 nM each time. In addition, the maximal fold induction in assay [1] (setting [3]) was more than 1.5. In addition, in assay [2], the “Enzymatic Emax” value is given as “B (3≥B>2)”.
As for `N#Cc1cncc(C#N)c1CC1c2ccccc2C(=O)N1Cc1ccc2[nH]nnc2c1` (stereo not drawn) [Compound 351, 4-((2-((1H-benzo[d][1,2,3]triazol-5-yl)methyl)-3-oxoisoindolin-1-yl)methyl)pyridine-3,5-dicarbonitrile], the EC50 in assay [1] (setting [3]) and in assay [2] (setting [4]) was less than 500 nM throughout. The maximal fold induction in assay [1] (setting [3]) is more than 1.5. Further, the “Enzymatic Emax” value in assay [2] was “A (A>3)”.
Consider `COc1ccc(CN2C(=O)c3ccccc3C2Cc2c(Cl)ccn(C)c2=O)cn1` (stereo not drawn) [Compound 625, 3-((4-chloro-1-methyl-2-oxo-1,2-dihydropyridin-3-yl)methyl)-2-((6-methoxypyridin-3-yl)methyl)isoindolin-1-one], for which, in assay [1] (setting [3]), the EC50 fell in the range of 500 to 5000 nM and the maximal fold induction was more than 1.5. The EC50 in assay [2] (setting [4]) lay in the range of 500 to 5000 nM. Also, the “Enzymatic Emax” value in assay [2] was “A (A>3)”.
In the case of `COC1CCN(Cc2ccc3c(c2)[C@H](C)N(Cc2ccc4[nH]c(=O)oc4c2)C3=O)C1` (single isomer, unassigned) [Compound 188], in assay [1] (setting [5]), the EC50 fell in the range of 500 to 5000 nM and the maximal fold induction is more than 1.5. Besides, the EC50 in assay [2] (setting [6]) is not below 5000 nM. In addition, the “Enzymatic Emax” value in assay [2] is recorded as “B (3≥B>2)”.
As for `Cn1ncc(Cl)c1CC1c2cccc(F)c2C(=O)N1Cc1ccc2[nH]nnc2c1` (stereo not drawn) [Compound 342, 2-((1H-benzo[d][1,2,3]triazol-5-yl)methyl)-3-((4-chloro-1-methyl-1H-pyrazol-5-yl)methyl)-7-fluoroisoindolin-1-one], in assay [1] (setting [3]), the EC50 is less than 500 nM and the maximal fold induction is more than 1.5. The EC50 in assay [2] (setting [4]) is less than 500 nM. For the same compound, the “Enzymatic Emax” value in assay [2] is listed as “A (A>3)”.
On to `Cc1cccc(CC2c3ccccc3C(=O)N2Cc2ccc3[nH]c(=O)oc3c2)n1` (stereo not drawn) [Compound 158, 6-((1-((6-methylpyridin-2-yl)methyl)-3-oxoisoindolin-2-yl)methyl)benzo[d]oxazol-2(3H)-one], for which the values for the EC50 in assay [1] (setting [5]) and in assay [2] (setting [6]) were 500 to 5000 nM and not below 5000 nM, respectively. In addition, the maximal fold induction in assay [1] (setting [5]) is more than 1.5. Moreover, the “Enzymatic Emax” value in assay [2] was “A (A>3)”.
For `O=C1c2cnccc2CN1Cc1ccc(O)cc1` [Compound 42, 2-(4-hydroxybenzyl)-1,2-dihydro-3H-pyrrolo[3,4-c]pyridin-3-one], in assay [1] (setting [5]), the EC50 fell in the range of 5000 to 50000 nM and the maximal fold induction is more than 1.5. Besides, the EC50 in assay [2] (setting [6]) is not below 5000 nM. Further, the “Enzymatic Emax” value in assay [2] was “A (A>3)”.
For `CC1c2ccccc2C(=O)N1Cc1ccc(NC(=O)NCc2cn[nH]c2)cc1` (stereo not drawn) [Compound 292, 1-((1H-pyrazol-4-yl)methyl)-3-(4-((1-methyl-3-oxoisoindolin-2-yl)methyl)phenyl)urea], in that order: less than 500 nM, not above 1.2, less than 500 nM and “C (2≥C)”.
The like results for `N#Cc1ccccc1CC1c2ccccc2C(=O)N1Cc1ccc(O)cc1` (stereo not drawn) [Compound 169, 2-((2-(4-hydroxybenzyl)-3-oxoisoindolin-1-yl)methyl)benzonitrile] were, in that order, less than 500 nM, more than 1.5, less than 500 nM and “B (3≥B>2)”.
`O=C1c2ccc(Nc3ccccc3)cc2C(=O)N1Cc1ccc(O)cc1` [Compound 15, 2-(4-hydroxybenzyl)-5-(phenylamino)isoindoline-1,3-dione]: in assay [1] (setting [5]), the EC50 was less than 500 nM and the maximal fold induction was not above 1.2. Besides, the EC50 in assay [2] (setting [6]) was 500 to 5000 nM. The “Enzymatic Emax” value in assay [2] is “B (3≥B>2)”.
Take `Cc1ccc(CC2c3ccccc3C(=O)N2Cc2ccc3[nH]c(=O)oc3c2)nc1` (stereo not drawn) [Compound 161, 6-((1-((5-methylpyridin-2-yl)methyl)-3-oxoisoindolin-2-yl)methyl)benzo[d]oxazol-2(3H)-one]: in assay [1] (setting [5]), the EC50 was in the range of 500 to 5000 nM and the maximal fold induction was more than 1.5. In assay [2] (setting [6]), the EC50 lay in the range of 500 to 5000 nM. Besides, the “Enzymatic Emax” value in assay [2] is reported as “A (A>3)”.
Consider `Cn1ncc(Cl)c1CC1c2ccccc2CCN1CC1CC2(CNC(=O)O2)C1` (stereo not drawn) [Compound 610, 2-((1-((4-chloro-1-methyl-1H-pyrazol-5-yl)methyl)-3,4-dihydroisoquinolin-2(1H)-yl)methyl)-5-oxa-7-azaspiro[3.4]octan-6-one], for which the EC50 in assay [1] (setting [3]) was 500 to 5000 nM; in assay [2] (setting [4]) it was not below 5000 nM. For the same compound, the maximal fold induction in assay [1] (setting [3]) was in the range of 1.2 to 1.5. The “Enzymatic Emax” value in assay [2] is reported as “B (3≥B>2)”.
In the case of `O=C1c2ccc(Br)cc2C(=O)N1Cc1ccc(O)cc1` [Compound 16, 5-bromo-2-(4-hydroxybenzyl)isoindoline-1,3-dione], in assay [1] (setting [5]), the EC50 lay in the range of 500 to 5000 nM and the maximal fold induction is not above 1.2. Further, the EC50 in assay [2] (setting [6]) was not below 5000 nM. Moreover, the “Enzymatic Emax” value in assay [2] is reported as “A (A>3)”.

Usually EC50 stands for the concentration giving half of the maximal effect.
